Data as given in US12195427B2, “MASP-2 inhibitors and methods of use” (priority 2018, dated 2025).

Target: MASP-2 CCP2-SP (Homo sapiens (Human), UniProt O00187)
Experiment: MASP-2 co-crystallization, X-ray crystallography and structure analysis (H-bonds, van der Waals contacts);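 for Ligand-pharmacophore element distance, pharmacophore element C2: distance from averaged pharmacophore element to bound ligand; missing value means element absent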;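 for Ligand-pharmacophore element distance, pharmacophore element C3: distance from averaged pharmacophore element to bound ligand; missing value means element absent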;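 for Ligand-pharmacophore element distance, pharmacophore element C4: distance from averaged pharmacophore element to bound ligand; missing value means element absent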;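 for Ligand-pharmacophore element distance, pharmacophore element C5: distance from averaged pharmacophore element to bound ligand; missing value means element absent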
Parameters: van der Waals contact distance, MASP-2 HIS 483 atom CD2 / van der Waals contact distance, MASP-2 HIS 483 atom NE2 / van der Waals contact distance, SER 654 C to compound atom / van der Waals contact distance, SER 654 O to compound atom / van der Waals contact distance, TRP 655 C to compound atom / van der Waals contact distance, MASP-2 GLY 528 atom CA / van der Waals contact distance TRP 655 atom CZ3 / van der Waals contact distance TRP 655 atom N / van der Waals contact distance TRP 655 atom CE3 / van der Waals contact distance GLY 656 atom C / van der Waals contact distance GLY 656 atom CA / van der Waals contact distance GLY 656 atom O / van der Waals contact distance, MASP-2 TYR 607 atom CD1 / van der Waals contact distance, MASP-2 PRO 606 atom O / d(C3,CA1) / d(CA1,N1)2 / d(H4,O1) / d(H4,O2) / d(O1,O2) / d(CA1,O2) / d(CA6,O1) / d(CA6,O2) / d(CA1,C5) / d(O2,H3) / d(N2,C2) / d(CA5,N2) / d(N2,C4) / d(N2,C6) / d(N2,CA3) / d(N2,O3) / d(O4,H2): unit not given beside the values
Conditions: for Ligand-pharmacophore element distance, pharmacophore element C2 / Ligand-pharmacophore element distance, pharmacophore element C3 / Ligand-pharmacophore element distance, pharmacophore element C4 / Ligand-pharmacophore element distance, pharmacophore element C5 / Ligand-pharmacophore element distance, pharmacophore element C6 / Ligand-pharmacophore element distance, pharmacophore element C7 / Ligand-pharmacophore element distance, pharmacophore element CA1 / Ligand-pharmacophore element distance, pharmacophore element CA2 / Ligand-pharmacophore element distance, pharmacophore element CA3 / Ligand-pharmacophore element distance, pharmacophore element CA4 / Ligand-pharmacophore element distance, pharmacophore element CA5 / Ligand-pharmacophore element distance, pharmacophore element CA6: Table A4-1; for d(CA1,C5) / d(CA1,O1) / d(CA1,O2) / d(CA1,O4) / d(H4,O1) / d(H4,O2) / d(O1,O2) / d(O4,H2): Table A5-1 pharmacophore: distance between elements, S2/S1 region; for d(N2,C2) / d(N2,CA2) / d(O2,H3) / d(O2,N2): Table A5-2 pharmacophore distance, S3/S4 region; for a(C5, CA1, O1) / a(CA1, O1, O2) / a(CA1, O4, H2) / a(O1, CA1, O4) / a(O1, O2, H4): Table A6-1 pharmacophore angle; for a(O1, O2, H3) / a(O1, O2, N2) / a(O2, N2, C2) / a(O2, N2, CA2): Table A6-2 pharmacophore angle; for Pharmacophore torsion angle a(C5, CA1, O1, H4) / Pharmacophore torsion angle a(H4, O1, O2, H3) / Pharmacophore torsion angle a(H4, O1, O2, N2) / Pharmacophore torsion angle a(O1, H4, O2, CA1) / Pharmacophore torsion angle a(O1, O2, N2, C2): Table A7-1; for Pharmacophore torsion angle a(C5, CA1, O1, H4) / Pharmacophore torsion angle a(H4, O1, O2, H3) / Pharmacophore torsion angle a(H4, O1, O2, N2) / Pharmacophore torsion angle a(O1, H4, O2, CA1) / Pharmacophore torsion angle a(O1, O2, N2, C2) / Pharmacophore torsion angle a(O1, O2, N2, CA2): between pharmacophore elements of the bound compound; for Pharmacophore torsion angle a(O1, O2, N2, CA2): Table A7-2
Description: This example illustrates the preparation of recombinant MASP-2 protein, based on UniProt O00187, human mannan-binding lectin serine protease 2. Expression constructs for human MASP-2 CCP2-SP and CCP2-SP-6HIS were generated for recombinant expression in E. coli cells.
Typically, crystallization hits were obtained by screening against […] 96-well crystallization reagent kits (GRAS6, GRAS2, Hampton Research; MORPHEUS, Molecular Dimensions; Wizard 1&2 Cryo, Rigaku Reagents) and crystal growth was inspected by optical microscopy. Crystals were used directly or further optimized for X-ray diffraction. Crystals were captured with cryogenic loops and dipped into liquid nitrogen directly or cryoprotected with a 20% glycerol in crystallization formulation before flash-cooling in liquid nitrogen.
Thereafter crystals are transferred once or twice for soaking within the crystallization solution containing the MASP-2 inhibitor.
Crystals were diffracted with synchrotron X-rays of […] and X-ray diffraction datasets were collected at beamlines SSRL BL9-2, BL14-1, BL12-2 as well as ALS sector 5 using Dectris Pilatus and Eiger detectors. Structures were determined by molecular replacement using portions of the structure 1Q3X as search models and partially refined with Buster 2.10.2 or Refmac 5.8. […] When multiple ligand poses were observed, for instance arising from multiple molecules in the asymmetric unit or refined dual poses within the same molecule, only one pose was selected and analyzed.
LigPlot+ calls these ‘nonbonded contacts’ or ‘hydrophobic contacts’. Despite the name, there are atom pairings that include possible H-bonds. Thus, in some instances, the Table A2 also contains H-bond interactions.

Chain of MASP-2 CCP2-SP (O00187 445-686): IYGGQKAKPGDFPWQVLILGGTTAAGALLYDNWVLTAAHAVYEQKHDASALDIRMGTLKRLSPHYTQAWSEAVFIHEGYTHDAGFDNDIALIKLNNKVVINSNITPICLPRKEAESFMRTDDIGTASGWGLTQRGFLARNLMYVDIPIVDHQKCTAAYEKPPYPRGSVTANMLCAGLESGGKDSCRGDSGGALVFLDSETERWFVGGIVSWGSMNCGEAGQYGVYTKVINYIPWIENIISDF
Chain of MASP-2 CCP2-SP (O00187 364-432 partner): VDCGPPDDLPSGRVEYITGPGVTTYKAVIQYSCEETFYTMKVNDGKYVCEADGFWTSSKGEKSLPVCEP

Structure (SMILES)	Ligand-pharmacophore element distance, pharmacophore element C2	Ligand-pharmacophore element distance, pharmacophore element C3	Ligand-pharmacophore element distance, pharmacophore element C4	Ligand-pharmacophore element distance, pharmacophore element C5	Ligand-pharmacophore element distance, pharmacophore element C6	Ligand-pharmacophore element distance, pharmacophore element C7	Ligand-pharmacophore element distance, pharmacophore element CA1	Ligand-pharmacophore element distance, pharmacophore element CA2	Ligand-pharmacophore element distance, pharmacophore element CA3	Ligand-pharmacophore element distance, pharmacophore element CA4	Ligand-pharmacophore element distance, pharmacophore element CA5	Ligand-pharmacophore element distance, pharmacophore element CA6	d(CA1,C5)	d(CA1,O1)	d(CA1,O4)	d(H4,O1)	d(O4,H2)	d(N2,C2)	d(N2,CA2)	a(C5, CA1, O1)	further results
C[C@H](NC(=O)[C@H]1C[C@@H](c2ccccc2)CCN1)C(=O)NCc1cc(Cl)ccc1O.Cl [1078_3]	0.43	0	0	0.45	0	0	1.53	0.27	0	0	0	0	3.13	4.44	2.75	3.13	0.98	1.45	5.70	162.08	d(CA1,O2): 4.54; d(H4,O2): 3.61; d(O1,O2): 3.17; d(O2,H3): 2.05; d(O2,N2): 2.79; a(CA1, O1, O2): 112.44; a(CA1, O4, H2): 128.44; a(O1, CA1, O4): 67.41; a(O1, O2, H4): 124.44; a(O1, O2, H3): 132.07; a(O1, O2, N2): 145.54; a(O2, N2, C2): 126.01; a(O2, N2, CA2): 154.83; Pharmacophore torsion angle a(C5, CA1, O1, H4): −5.62; Pharmacophore torsion angle a(H4, O1, O2, H3): −160.53; Pharmacophore torsion angle a(H4, O1, O2, N2): −166.69; Pharmacophore torsion angle a(O1, H4, O2, CA1): −82.33; Pharmacophore torsion angle a(O1, O2, N2, C2): 132.95; Pharmacophore torsion angle a(O1, O2, N2, CA2): 140.71
C[C@H](NC(=O)[C@H]1C[C@@H](c2ccccc2)CCN1)C(=O)NCc1cc(Cl)ccc1O.Cl [1078_4]	0.67	0	0	0.52	0	0	1.62	0.59	0	0	0	0	3.13	4.56	2.76	2.27	0.97	1.51	5.66	161.60	d(CA1,O2): 4.61; d(H4,O2): 2.64; d(O1,O2): 3.39; d(O2,H3): 2.72; d(O2,N2): 2.70; a(CA1, O1, O2): 112.48; a(CA1, O4, H2): 128.57; a(O1, CA1, O4): 65.56; a(O1, O2, H4): 93.17; a(O1, O2, H3): 141.42; a(O1, O2, N2): 146.07; a(O2, N2, C2): 126.96; a(O2, N2, CA2): 155.54; Pharmacophore torsion angle a(C5, CA1, O1, H4): 32.90; Pharmacophore torsion angle a(H4, O1, O2, H3): −123.98; Pharmacophore torsion angle a(H4, O1, O2, N2): −113.42; Pharmacophore torsion angle a(O1, H4, O2, CA1): −58.33; Pharmacophore torsion angle a(O1, O2, N2, C2): 124.98; Pharmacophore torsion angle a(O1, O2, N2, CA2): 136.93
C[C@H](NC(=O)[C@H]1C[C@@H](c2ccccc2)CCN1)C(=O)NCc1cc(Cl)ccc1O.Cl [1078_5]	0.71	0	0	0.42	0	0	1.76	0.6	0	0	0	0	3.12	4.48	2.72	2.40	0.98	1.45	5.65	164.79	d(CA1,O2): 4.88; d(H4,O2): 2.46; d(O1,O2): 3.41; d(O2,H3): 3.24; d(O2,N2): 2.95; a(CA1, O1, O2): 117.54; a(CA1, O4, H2): 131.80; a(O1, CA1, O4): 55.67; a(O1, O2, H4): 90.82; a(O1, O2, H3): 138.56; a(O1, O2, N2): 141.15; a(O2, N2, C2): 114.27; a(O2, N2, CA2): 151.79; Pharmacophore torsion angle a(C5, CA1, O1, H4): 21.83; Pharmacophore torsion angle a(H4, O1, O2, H3): −119.72; Pharmacophore torsion angle a(H4, O1, O2, N2): −115.76; Pharmacophore torsion angle a(O1, H4, O2, CA1): −52.04; Pharmacophore torsion angle a(O1, O2, N2, C2): 148.01; Pharmacophore torsion angle a(O1, O2, N2, CA2): 149.21
C[C@H](NC(=O)[C@H]1C[C@@H](c2ccccc2)CCN1)C(=O)NCc1cc(Cl)ccc1O.Cl [1078_6]	1.09	0	0	0.48	0	0	1.31	0.65	0	0	0	0	3.11	5.90	2.75	2.75	0.98	1.49	5.49	152.72	a(CA1, O4, H2): 126.69; a(O1, CA1, O4): 67.49; Pharmacophore torsion angle a(C5, CA1, O1, H4): −22.50
